Source: patent EP0188781A1, “1-Oxa-1-dethia-cephalosporin compounds and antibacterial agent comprising the same” (Merck & Co., Inc., priority 1984, dated 1986)

Key:
[1] = tested on: Staphylococcus aureus Smith; assay: Minimum inhibitory concentration (MIC) in vitro, antibacterial spectrum; type: cell-based
[2] = tested on: Staphylococcus aureus 209 P JC-1; assay: as above; type: cell-based
[3] = tested on: Escherichia coli NIHJ JC-2; assay: as above; type: cell-based
[4] = tested on: Escherichia coli GN206; assay: as above; type: cell-based
[5] = tested on: Salmonella typhimurium LT-2; assay: as above; type: cell-based
[6] = tested on: Proteus mirabilis GN79; assay: as above; type: cell-based
[7] = tested on: Proteus vulgaris GN76; assay: as above; type: cell-based
[8] = tested on: Proteus rettgeri GN624; assay: as above; type: cell-based
[9] = tested on: Serratia marcescens No. 2; assay: as above; type: cell-based
[10] = tested on: Pseudomonas aeruginosa MB3833; assay: as above; type: cell-based
[11] = tested on: Pseudomonas aeruginosa MB3829; assay: as above; type: cell-based
[12] = tested on: Pseudomonas aeruginosa E-2; assay: as above; type: cell-based
[13] = tested on: Streptococcus faecalis ATCC8043; assay: as above; type: cell-based
[14] = tested on: Streptococcus faecalis W-73; assay: as above; type: cell-based
[15] = tested on: Streptococcus faecalis W-74; assay: as above; type: cell-based
[16] = tested on: Streptococcus faecalis W-75; assay: as above; type: cell-based
[17] = tested on: Streptococcus faecalis; assay: Antibacterial activity in vitro, summary in words; type: cell-based; conditions: statement in words on Table 1
[18] = tested on: Pseudomonas aeruginosa; assay: Antibacterial activity in vitro, summary in words; type: cell-based; conditions: statement in words on Table 1
Source text: Besides, the compounds of Examples 1, 2, 4, 5 and 7 advantageously are also effective against Pseudomonas aeruginosa.

[19] = Concentration in serum after subcutaneous administration to mice, bioassay with Escherichia coli; type: in vivo; conditions: mouse, sc, 25 mg/kg subcutaneously; for concentration at 0.5 h: 1/2 hour; for concentration at 0.25 h: 1/4 hour; for concentration at 5 min: 1/12 hour
Source text: For the serum which was separated from the blood samples, the concentration in the serum of the compound administered was bioassayed using Escherichia coli as assay microorganism.

Row | SMILES | Minimum inhibitory concentration (MIC) [1] | Minimum inhibitory concentration (MIC) [2] | Minimum inhibitory concentration (MIC) [3] | Minimum inhibitory concentration (MIC) [4] | Minimum inhibitory concentration (MIC) [5] | Minimum inhibitory concentration (MIC) [6] | Minimum inhibitory concentration (MIC) [7] | Minimum inhibitory concentration (MIC) [8] | Minimum inhibitory concentration (MIC) [9] | Minimum inhibitory concentration (MIC) [10] | Minimum inhibitory concentration (MIC) [11] | Minimum inhibitory concentration (MIC) [12] | Minimum inhibitory concentration (MIC) [13] | Minimum inhibitory concentration (MIC) [14] | Minimum inhibitory concentration (MIC) [15] | Minimum inhibitory concentration (MIC) [16] | effective against Streptococcus faecalis [17] | effective against Pseudomonas aeruginosa [18] | concentration at 0.5 h [19] | concentration at 0.25 h [19] | other results
1 | CCN1CCN(C(=O)NC(C(=O)N[C@@H]2C(=O)N3C(C(=O)O)=C(CSc4nc(=O)c(O)nn4C)[C@H](C)O[C@H]23)c2csc(N)n2)C(=O)C1=O (single isomer, unassigned) [Compound No. 5] | 3.13 | 1.56 | 0.10 | 1.56 | 0.10 | 0.78 | 0.025 | 0.78 | 0.39 | 3.13 | 1.56 | 3.13 | 50 | 25 | 6.25 | 3.13 | effective | effective | 25000 ng/mL | 44000 ng/mL | concentration at 5 min [19]: 24000 ng/mL; concentration at 1 h [19]: 10000 ng/mL
2 | CO/N=C(\C(=O)N[C@@H]1C(=O)N2C(C(=O)O)=C(CSc3nc(=O)c(O)nn3C)[C@H](C)O[C@H]12)c1csc(N)n1 [Compound No. 1, (6R,7R)-7[(Z)-2-(2-aminothiazol-4-yl)-2-(methoxyimino)acetamido]-(2S)-2-methyl-3-(2,5-dihydro-6-hydroxy-2-methyl-5-oxo-1,2,4-triazin-3-yl)thiomethyl-l-oxa-l-dethia-ceph-3-em-4-carboxylic acid] | 1.56 | 0.78 | 0.10 | 0.78 | 0.05 | 0.025 | 0.10 | 0.78 | 0.39 | 6.25 | 6.25 | 12.5 | 6.25 | 50 | 6.25 | 0.20 | effective | effective | 41000 ng/mL | 47700 ng/mL | concentration at 5 min [19]: 27000 ng/mL; concentration at 1 h [19]: 24800 ng/mL
